Test results: patent publication US4973576A, “Bisphophonic acid derivatives and pharmaceutical compositions containing the same” (Yamanouchi Pharmaceutical Co., Ltd., priority 1987, dated 1990)
Several values for one entry are separate records, joined by “and”; a condition that tells them apart may be missing. Identical values can stand only once.

Experiments:
[1] = test system: hypercalcemia induced by administration of parathyroid hormone (PTH); assay: Inhibitory effect on hypercalcemia induced by PTH in rats (serum Ca++); type: in vivo, male Wistar rats; conditions: mean ± S.E.
Protocol: Rats of hypercalcemia induced by administration of parathyroid hormone (hereinafter referred to as "PTH") were used, and the decrement of the serum calcium amount by administration of the compound was measured.
30 μg/kg of human 1-34 PTH (manufactured by Peptide Laboratory) which was dissolved in a 0.1% BSA (bovine serum albumin)-containing physiological saline (content of the PTH is 6 μg/ml) was intravenously injected in an amount of 30 μg/kg (5 ml/kg as the solution) to 5-week male Wistar rats which had been fasting for 20 hours. Only 0.1% BSA-containing physiological saline was injected to the normal control group in the same manner. 45 minutes after the PTH injection, the rats were etherized and then subjected to celiotomy, whereby the blood was collected from the abdominal cava with a vacuum blood-collecting tube. The blood collected was immediately centrifuged by 3000 rpm, at 4° C. for 10 minutes to isolate the serum. The ionized calcium (Ca^++) concentration in the serum was immediately measured with a Ca^++ meter (Sera 250, manufactured by Horiba Manufacturing Co.).
The compounds of the present invention were dissolved using sodium hydroxide and hydrochloric acid, in physiological saline (pH 7.4), for subcutaneous administration, in such amounts that the dose amounted to 2 ml/kg, and for oral administration, in distilled water (pH 7.4) so that the dose amounted to 5 ml/kg. They were administered 24 or 72 hours before the PTH injection. A physiological saline or a distilled water was administered to the normal control group and the control group, in the same manner. Salmon calcitonin (SCT, manufactured by Armour Co.) was dissolved in physiological saline so that the dose amounted to 2 ml/kg, and then subcutaneously administered 30 minutes before the PTH injection.
The results for each group were expressed in terms of mean±S.E. (standard error) and comparison was made among the groups by testing by one-way analysis of variance. The significance level was taken at 5%.

[2] = test system: immobilization-induced atrophy of bone; assay: Inhibition of bone resorption: immobilization-induced (neurectomy) atrophy of bone in rats; type: in vivo, Wistar rats; conditions: for Left humerus Ashed weight / Left humerus Ashed weight / Dry weight / Left humerus Dry weight: 2 weeks; for Difference of Bone Ash Content (b): nontreated minus treated humerus ashed weight; for Difference of Bone Weight (a): nontreated minus treated humerus dry weight
[3] = test system: adjuvant arthritis; assay: Experiment (3)-I: therapeutic effect on adjuvant arthritis in rats; type: in vivo, male Lewis rats
Protocol: (§1) Specifically, for investigation of the anti-arthritic effect, experimental models of adjuvant arthritis which is resemble to rheumatoid arthritis in human were used in two test methods. In one method to test the therapeutic effect of the compounds, the compounds to be tested were administered to the animals already having the adjuvant arthritis. In the other method to test the prophylactic effect of the compounds, these were administered after the adjuvant administration, and the expression and progress of the resulting arthritis, if any, was observed.
0.1 ml of a suspension of dry dead cells of Mycobacterium butyricum as suspended in liquid paraffin in a proportion of 6 mg/ml was subcutaneously injected to male Lewis rats (7-week) in the tail. After 17 or 18 days, the thickness of the both hind paws was measured. One group comprising six rats in which the arthritis was noticeably observed was isolated. After the grouping day, the compound to be tested was subcutaneously or orally administered once a day for 14 days to the rats. Next day after the last administration, the thickness of the soles of the both hind legs was again measured.
(§2) For the Experiments (3)-I and (3)-II, the compounds of the present invention were dissolved, using sodium hydroxide and hydrochloric acid in physiological saline (pH 7.4), for subcutaneous administration, in such amount that the dose amounted to 2 ml/kg, and for oral administration, in distilled water (pH 7.4) so that the dose amounted to 5 ml/kg; and indometacin (as comparative drug) was suspended in 0.5% methyl cellulose solution so that the dose amounted to 5 ml/kg. Each rat was weighed at the first day of starting the administration of the compound to be tested and at the last day of the administration of the compound, and the difference of the weight there between (ΔB.W.) was obtained.
(§3) The results for each group were expressed in terms of mean ±S.E. (standard error) and comparison was made among the groups by testing by one-way analysis of variance. The significance level was taken at 5%.

[4] = test system: adjuvant arthritis; assay: Experiment (3)-II: prophylactic effect on adjuvant arthritis in rats; type: in vivo, male Lewis rats; conditions: sc; for Thickness of Paw, Left: adjuvant-injected paw; for Thickness of Paw, Right: opposite paw
Protocol: as §1
0.05 ml of the suspension of dry dead bacilli of Mycobacterium butyricum as suspended in liquid paraffin in a proportion of 6 mg/ml was subcutaneously injected to male Lewis rats (6 to 7-week) in the left hind paw. After the adjuvant injection, the compound to be tested was administered to the rats once a day for 21 days. Next day after the last administration, the thickness of the both hind paws of the rats was measured.
as §2, §3

[5] = Acute toxicity test in rats; type: in vivo; conditions: sc, 10 mg/kg/day for continuous two weeks
Protocol: The compound of Manufacture Example 1 was subcutaneously injected to rats in an amount of 10 mg/kg/day for continuous two weeks, and no rats died.

[6] = sc, 10 mg/kg once a day 14 days
[7] = po, 10 mg/kg once a day 14 days
[8] = po, 30 mg/kg once a day 14 days
[9] = po, 100 mg/kg once a day 14 days, 100 mg/kg
[10] = sc, 0.1 mg/kg once a day 14 days
[11] = sc, 0.3 mg/kg once a day 14 days
[12] = sc, 1.0 mg/kg once a day 14 days
[13] = sc, 3.0 mg/kg once a day 14 days

Cc1cc(NC(P(=O)(O)O)P(=O)(O)O)no1 [Manufacture Example 1, [(5-methyl-3-isoxazolyl)amino]methylene-bis(phosphonic acid)]
Serum Ca++ ([1]; oral, 30 mg/kg, 72 hours before PTH injection): 1.48 ± 0.01 m mole/liter | Serum Ca++ ([1]; oral, 100 mg/kg, 24 hours before PTH injection): 1.44 ± 0.02 m mole/liter | Serum Ca++ ([1]; oral, 100 mg/kg, 72 hours before PTH injection): 1.16 ± 0.03 m mole/liter | Serum Ca++ ([1]; oral, 300 mg/kg, 24 hours before PTH injection): 1.41 ± 0.01 m mole/liter | Serum Ca++ ([1]; sc, 0.3 mg/kg, 24 hours before PTH injection): 1.43 ± 0.02 m mole/liter | Serum Ca++ ([1]; sc, 1.0 mg/kg, 24 hours before PTH injection): 1.40 ± 0.01 m mole/liter | Serum Ca++ ([1]; sc, 3.0 mg/kg, 24 hours before PTH injection): 1.36 ± 0.02 m mole/liter | Left humerus Ashed weight ([2]; oral, 10 mg/kg): 54.9 ± 1.3 mg | Left humerus Ashed weight / Dry weight ([2]; oral, 10 mg/kg): 53.4 ± 0.3% | Left humerus Dry weight ([2]; oral, 10 mg/kg): 102.8 ± 2.2 mg | Left humerus Ashed weight ([2]; oral, 30 mg/kg): 61.0 ± 1.0 mg | Left humerus Ashed weight / Dry weight ([2]; oral, 30 mg/kg): 54.4 ± 0.3% | Left humerus Dry weight ([2]; oral, 30 mg/kg): 112.1 ± 1.4 mg | Left humerus Ashed weight ([2]; oral, 100 mg/kg): 68.9 ± 1.3 mg | Left humerus Ashed weight / Dry weight ([2]; oral, 100 mg/kg): 55.6 ± 0.2% | Left humerus Dry weight ([2]; oral, 100 mg/kg): 123.9 ± 2.3 mg | Left humerus Ashed weight ([2]; sc, 0.1 mg/kg): 64.9 ± 1.2 mg | Left humerus Ashed weight / Dry weight ([2]; sc, 0.1 mg/kg): 56.9 ± 0.1% | Left humerus Dry weight ([2]; sc, 0.1 mg/kg): 113.9 ± 2.0 mg | Left humerus Ashed weight ([2]; sc, 0.3 mg/kg): 65.4 ± 1.6 mg | Left humerus Ashed weight / Dry weight ([2]; sc, 0.3 mg/kg): 57.2 ± 0.3% | Left humerus Dry weight ([2]; sc, 0.3 mg/kg): 114.4 ± 2.6 mg | Left humerus Ashed weight ([2]; sc, 1.0 mg/kg): 70.1 ± 1.1 mg | Left humerus Ashed weight / Dry weight ([2]; sc, 1.0 mg/kg): 57.8 ± 0.4% | Left humerus Dry weight ([2]; sc, 1.0 mg/kg): 121.3 ± 2.1 mg | Difference of Bone Ash Content (b) ([2]; sc, 3 mg/kg once a day 14 days): 4.8 ± 0.5 mg | Difference of Bone Weight (a) ([2]; sc, 3 mg/kg once a day 14 days): 8.0 ± 1.0 mg | Difference of Bone Ash Content (b) [2, 6]: 1.7 ± 0.5 mg | Difference of Bone Weight (a) [2, 6]: 3.2 ± 0.7 mg | Thickness of Paw (average of right and left paws) [3, 7]: 1435 ± 49 × 0.01 mm | ΔB.W. [3, 7]: 23.3 ± 0.9 g | Thickness of Paw (average of right and left paws) [3, 8]: 1296 ± 45 × 0.01 mm | ΔB.W. [3, 8]: 32.8 ± 1.7 g | Thickness of Paw (average of right and left paws) [3, 9]: 1131 ± 36 × 0.01 mm and 1083 ± 36 × 0.01 mm | ΔB.W. [3, 9]: 50 ± 3 g and 43.3 ± 2.0 g | Thickness of Paw (average of right and left paws) [3, 10]: 1258 ± 31 × 0.01 mm | ΔB.W. [3, 10]: 40 ± 2 g | Thickness of Paw (average of right and left paws) [3, 11]: 1102 ± 36 × 0.01 mm | ΔB.W. [3, 11]: 50 ± 2 g | Thickness of Paw (average of right and left paws) [3, 12]: 956 ± 36 × 0.01 mm | ΔB.W. [3, 12]: 56 ± 4 g | Thickness of Paw (average of right and left paws) [3, 13]: 974 ± 32 × 0.01 mm | ΔB.W. [3, 13]: 56 ± 1 g | ΔB.W. ([4]; 0.1 mg/kg once a day 21 days): 238 ± 2 g | Thickness of Paw, Left ([4]; 0.1 mg/kg once a day 21 days): 1277 ± 19 × 0.01 mm | Thickness of Paw, Right ([4]; 0.1 mg/kg once a day 21 days): 1279 ± 27 × 0.01 mm | ΔB.W. ([4]; 0.3 mg/kg once a day 21 days): 239 ± 2 g | Thickness of Paw, Left ([4]; 0.3 mg/kg once a day 21 days): 1158 ± 12 × 0.01 mm | Thickness of Paw, Right ([4]; 0.3 mg/kg once a day 21 days): 1107 ± 25 × 0.01 mm | ΔB.W. ([4]; 1.0 mg/kg once a day 21 days): 233 ± 3 g | Thickness of Paw, Left ([4]; 1.0 mg/kg once a day 21 days): 1174 ± 14 × 0.01 mm | Thickness of Paw, Right ([4]; 1.0 mg/kg once a day 21 days): 1110 ± 28 × 0.01 mm | mortality [5]: no rats died
